Some test systems named below: A549 NSCLC; BT-549 breast; HOP-62 NSCLC; HOP-92 NSCLC; HS 578T breast; LOX IMVI melanoma; MDA-MB-435; NCI-H522 lung; SW-620 colon; SK-MEL-5 melanoma.
Test in all cases: NCI-60 cell line screen, 48 h

The structures appear in SMILES notation.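 Exposure lasted 48 hours, with cells grown in 96-well plates and compounds tested at five concentrations. GI50 is the concentration that inhibits growth by half. TGI marks complete inhibition of growth.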 A value given as a limit tells only on which side of the number the result lay.

`COc1ccc2c(O)c(/C=C3\N=Nc4ccccc43)oc2c1C[C@@H]1CCNC[C@H]1F`: the GI50 in the assay with A549 NSCLC was 13.5 µM; in the assay on BT-549 breast it was 12.8 µM; with HOP-62 NSCLC it was 11.1 µM; with HOP-92 NSCLC, 13.3 µM; with HS 578T breast, 10.3 µM; with LOX IMVI melanoma it was 1.6 µM. Moreover, the GI50 in the assay with MDA-MB-435 is 11.3 µM; in the assay with NCI-H522 lung it was 1.67 µM; with SW-620 colon it was 2.51 µM. For the same molecule, the TGI in the assay with A549 NSCLC is 28 µM; in the assay on BT-549 breast, 26.1 µM; in the assay with HOP-62 NSCLC, 24.6 µM; in the assay with HOP-92 NSCLC, 29.5 µM; in the assay with HS 578T breast it was 28.7 µM; in the assay on LOX IMVI melanoma, 2.99 µM. Besides, the TGI with MDA-MB-435 was determined as 24.4 µM; with NCI-H522 lung it was 3.94 µM; in the assay with SW-620 colon, 11.7 µM.

On to `S=C(NCCNC(=S)[S][Sn]([c]1ccccc1)([c]1ccccc1)[c]1ccccc1)[S][Sn]([c]1ccccc1)([c]1ccccc1)[c]1ccccc1`, for which the GI50 in the assay with A549 NSCLC is 0.0231 µM; in the assay with BT-549 breast, 0.0799 µM; in the assay on HOP-62 NSCLC it was 0.0677 µM; with HOP-92 NSCLC, 0.0102 µM; in the assay with HS 578T breast, 0.0564 µM; in the assay with LOX IMVI melanoma, 0.0152 µM. In addition, the GI50 in the assay with MDA-MB-435 is 0.0153 µM; in the assay on NCI-H522 lung it was 0.0265 µM; with SK-MEL-5 melanoma, 0.0432 µM; in the assay on SW-620 colon it was 0.014 µM. Besides, the TGI came out at 0.0938 µM with A549 NSCLC; 0.183 µM with BT-549 breast; 0.147 µM in the assay with HOP-62 NSCLC; 0.0493 µM in the assay on HOP-92 NSCLC; 0.461 µM with HS 578T breast; 0.0541 µM in the assay on LOX IMVI melanoma. Also, the TGI worked out at 0.0559 µM with MDA-MB-435, 0.0941 µM with NCI-H522 lung, 0.108 µM in the assay on SK-MEL-5 melanoma and 0.0379 µM in the assay with SW-620 colon.

Consider `CC(N)(/C=C/c1ccccc1)C(=O)O` (centres undefined), for which the TGI in the assay on A549 NSCLC, with BT-549 breast, with HOP-62 NSCLC, with HOP-92 NSCLC, with HS 578T breast and in the assay with LOX IMVI melanoma was over 100 µM in each case. Also, the TGI with MDA-MB-435, with NCI-H522 lung, with SK-MEL-5 melanoma and in the assay with SW-620 colon was over 100 µM each time.

For `c1ccc2cc(NCNc3ccc4ccccc4c3)ccc2c1`, the TGI is 47.5 µM in the assay with A549 NSCLC; 53.2 µM with BT-549 breast; 51.3 µM in the assay on HOP-62 NSCLC; 26.6 µM in the assay on HOP-92 NSCLC; over 100 µM in the assay on HS 578T breast; 25.9 µM in the assay on LOX IMVI melanoma. Besides, the TGI with MDA-MB-435 is 3.32 µM; in the assay on NCI-H522 lung, 49.5 µM; in the assay with SK-MEL-5 melanoma, 18.5 µM; in the assay with SW-620 colon it was over 100 µM.

`CC(C)(C)[Si](C)(C)OC1[C@@H](O[Si](C)(C)C(C)(C)C)[C@@H](CNC(=O)NC(=O)CF)O[C@H]1n1cnc2c(NC(=O)Nc3ccccc3)ncnc21` (some centres undefined): the GI50 with A549 NSCLC was 6.92 µM; with BT-549 breast it was 12.2 µM; with HOP-62 NSCLC, 9.31 µM; in the assay with HOP-92 NSCLC it was 6.48 µM; with HS 578T breast it was 10.1 µM; with LOX IMVI melanoma, 6.14 µM. Moreover, the GI50 in the assay with MDA-MB-435 was 14.6 µM; with NCI-H522 lung it was over 50 µM; in the assay on SK-MEL-5 melanoma it was 3.07 µM; in the assay with SW-620 colon, 15.5 µM. The TGI in the assay on A549 NSCLC was over 50 µM; with BT-549 breast, 42.5 µM; with HOP-62 NSCLC, over 50 µM; with HOP-92 NSCLC, 19.8 µM; in the assay with HS 578T breast it was over 50 µM; with LOX IMVI melanoma, 12.5 µM. Besides, the TGI in the assay on MDA-MB-435 was over 50 µM; in the assay with NCI-H522 lung it was over 50 µM; with SK-MEL-5 melanoma, 25.6 µM; in the assay with SW-620 colon, over 50 µM.

As to `O=C([O][Hg][CH2]C1OCCOC1[CH2][Hg][O]C(=O)c1ccccc1)c1ccccc1` (centres undefined), the GI50 in the assay on A549 NSCLC is 16.7 µM; with BT-549 breast, 8.22 µM; with HOP-92 NSCLC, 37.6 µM; with HS 578T breast it was 16.1 µM; in the assay on LOX IMVI melanoma, 3.66 µM; with MDA-MB-435, 15.9 µM. Also, the GI50 in the assay with NCI-H522 lung was 0.0642 µM; in the assay with SK-MEL-5 melanoma it was 7.58 µM; in the assay on SW-620 colon, 1.54 µM. The TGI with A549 NSCLC is 32.8 µM; with BT-549 breast, 20.4 µM; in the assay on HOP-92 NSCLC, 59.4 µM; in the assay on HS 578T breast, 43.9 µM; with LOX IMVI melanoma, 7.56 µM; with MDA-MB-435, 29.3 µM. Also, the TGI in the assay on NCI-H522 lung is 0.23 µM; with SK-MEL-5 melanoma, 22.8 µM; with SW-620 colon, 3 µM.

As to `COc1ccc2c(c1)CC[C@@H]1[C@@H]2CC[C@]2(C)c3c(cc(C(=O)O)c4sccc34)C[C@@H]12`, the GI50 in the assay on A549 NSCLC was 11.2 µM; in the assay with BT-549 breast it was 18.7 µM; in the assay with HOP-62 NSCLC, 19.6 µM; in the assay with HS 578T breast, 28.7 µM; in the assay with LOX IMVI melanoma, 17.7 µM; with MDA-MB-435, 18.4 µM. Moreover, the GI50 in the assay on NCI-H522 lung is 24.7 µM; with SK-MEL-5 melanoma, 14.7 µM; with SW-620 colon, 16.1 µM. Further, the TGI with A549 NSCLC came out at 35.9 µM; in the assay on BT-549 breast, 38.8 µM; in the assay with HOP-62 NSCLC, 38.5 µM; in the assay on HS 578T breast it was 96.1 µM; with LOX IMVI melanoma it was 42.8 µM; with MDA-MB-435, 39.6 µM. In addition, the TGI with NCI-H522 lung was found to be 86.8 µM; in the assay on SK-MEL-5 melanoma, 28.4 µM; with SW-620 colon, 36.7 µM.

`N#C[Se]CCN1C(=O)C2C(C1=O)[C@H]1C=C[C@@H]2S1` (some centres undefined): the GI50 in the assay with A549 NSCLC is 1.93 µM; in the assay with BT-549 breast it was 1.74 µM; with HOP-92 NSCLC, 1.88 µM; in the assay on HS 578T breast, 1.75 µM; in the assay with LOX IMVI melanoma, 1.67 µM; in the assay with MDA-MB-435, 1.7 µM. In addition, the GI50 is 2.02 µM in the assay on SK-MEL-5 melanoma and 2.87 µM in the assay with SW-620 colon. Besides, the TGI with A549 NSCLC was determined as 4.56 µM; in the assay with BT-549 breast, 3.38 µM; in the assay with HOP-92 NSCLC it was 3.94 µM; with HS 578T breast it was 6.21 µM; with LOX IMVI melanoma it was 4.12 µM; in the assay with MDA-MB-435, 3.26 µM. For the same molecule, the TGI stood at 4.09 µM in the assay on SK-MEL-5 melanoma and 8.19 µM with SW-620 colon.

As to `O=C(NC(=O)c1ccccc1[N+](=O)[O-])Nc1ccc(Oc2ncc(Cl)cn2)c([N+](=O)[O-])c1`, the TGI in the assay with A549 NSCLC was over 100 µM; with BT-549 breast, over 100 µM; in the assay on HOP-62 NSCLC, over 100 µM; in the assay with HS 578T breast, 0.636 µM; with LOX IMVI melanoma, over 100 µM; in the assay with MDA-MB-435 it was 0.197 µM. The TGI in the assay on NCI-H522 lung was 1.68 µM; with SK-MEL-5 melanoma, over 14.1 µM; with SW-620 colon, over 100 µM.

(Values after PubChem BioAssay (NCI).)
